Laboratory results: patent US5583218A, “Carbapenem derivatives” (Daiichi Pharmaceutical Co., Ltd., priority 1988, dated 1996)
Values after ≈ are worked out from the molar mass of the structure shown. Read-outs that look alike come from different tables or passages of the source.

Legend:
[1] = system: E. coli NIHJ; assay: Minimum inhibitory concentration against E. coli NIHJ; type: cell-based; conditions: Escherichia coli
[2] = system: Ent. cloacae 03400; assay: Minimum inhibitory concentration against Ent. cloacae 03400; type: cell-based; conditions: Enterobacter cloacae
[3] = system: Ser. marcescens 10104; assay: Minimum inhibitory concentration against Ser. marcescens 10104; type: cell-based, Serratia marcescens
[4] = system: Ps. aeruginosa 32233; assay: Minimum inhibitory concentration against Ps. aeruginosa 32233; type: cell-based; conditions: Pseudomonas aeruginosa
[5] = system: S. aureus 209P; assay: Minimum inhibitory concentration against S. aureus 209P; type: cell-based; conditions: Staphylococcus aureus
[6] = system: C. difficile GAI-0747; assay: Minimum inhibitory concentration against C. difficile GAI-0747; type: cell-based, Clostridium difficile; conditions: Clostridioides difficile, GAI0747
[7] = system: gram-positive and gram-negative bacteria, obligate anaerobes, strains resistant to penicillins and cepharosporins; conditions: bacteria resistant to penicillin and cepharosporin antibiotics; background art; cited from earlier work
[8] = Serratia marcescens, Ser. marcescens 10104, read-out: Minimum Inhibitory Concentration (MIC)

Row | MIC [1] | MIC [2] | MIC [3, 8] | MIC [4] | MIC [5] | MIC [6] | SMILES | MIC ([3]; Serratia marcescens, 10104, read-out: Minimum Inhibitory Concentration (MIC)) | antibacterial activity [7]
1 | < 0.1 µg/mL | < 0.1 µg/mL | < 0.1 µg/mL | 6.25 µg/mL (≈ 17.9 µM) | < 0.1 µg/mL | 3.13 µg/mL (≈ 8.96 µM) | C[C@@H](O)[C@H]1C(=O)N2C(C(=O)O)=C(SC3Cc4cncn4C3)[C@H](C)[C@H]12 (single isomer, unassigned) [Compound 1] | – | –
2 | < 0.1 µg/mL | < 0.1 µg/mL | < 0.1 µg/mL | 6.25 µg/mL (≈ 17.9 µM) | < 0.1 µg/mL | 1.56 µg/mL (≈ 4.46 µM) | C[C@@H](O)[C@H]1C(=O)N2C(C(=O)O)=C(SC3Cc4nccn4C3)[C@H](C)[C@H]12 (single isomer, unassigned) [Compound 2] | – | –
3 | – | – | – | – | – | – | C[C@@H](O)[C@H]1C(=O)N2C(C(=O)O)=C(SCCN)C[C@H]12 [Thienamycin] | – | effective even against bacteria resistant to penicillin and cepharosporin antibiotics

Row | SMILES | MIC [1] | MIC [2] | MIC [3, 8] | MIC [4] | MIC [5] | MIC [6] | MIC ([3]; Serratia marcescens, 10104, read-out: Minimum Inhibitory Concentration (MIC)) | antibacterial activity [7]
4 | C[C@@H](O)[C@H]1C(=O)N2C(C(=O)O)=C(SCCN=CN)C[C@H]12 [MK-0787, reference compound] | 0.2 µg/mL (≈ 0.668 µM) | 0.78 µg/mL (≈ 2.61 µM) | – | 1.56 µg/mL (≈ 5.21 µM) | < 0.1 µg/mL | 50 µg/mL (≈ 167 µM) | 1.56 µg/mL (≈ 5.21 µM) | –
